Test results published in patent US20070129334A1, “Orally Active Purine-Based Inhibitors of Heat Shock Protein 90” (CONFORMA THERAPEUTICS CORPORATION, priority 2001, published 2007).
Like-named read-outs stand apart in the source and are kept apart here.

Key:
[1] = test system: MCF-7 breast cancer cells; assay: MTS cell growth inhibition assay; format: cell-based, human; conditions: MCF-7 cells
[2] = Pharmacokinetics in Balb/C mice (IV 10 mg/kg, PO 100 mg/kg); conditions: for IV Parameters T1/2 / IV Parameters VSS / IV Parameters Cl: IV 10 mg/kg; for IV Parameters T1/2 / IV Parameters VSS / PO Parameters T1/2 / PO Parameters Cmax / PO Parameters Tmax / PO Parameters AUC: H3PO4 salts; for PO Parameters T1/2 / PO Parameters Cmax / PO Parameters Tmax / PO Parameters AUC: PO 100 mg/kg; for PO Parameters Cmax: plasma; for IV Parameters Cl: H3PO4 salts in phosphatidylcholine/water dispersion; for PO Parameters AUC: over 4 h; for PO Parameters % F: oral bioavailability, PO 100 mg/kg vs IV 10 mg/kg
[3] = in vivo; conditions: Balb/C, mouse, plasma
[4] = test system: HER-2 receptor (Hsp90 client) in MCF-7 cells; assay: HER-2 degradation assay (MCF-7 cells, 16 h, phycoerythrin-labeled antibody and flow cytometry); format: cell-based, human
[5] = test system: Her-2 in MCF-7 cells; assay: HER2 inhibition assay (Her-2 degradation, MCF-7 cells, 24 incubation, flow cytometry); format: cell-based; conditions: Homo sapiens, MCF7, concentration necessary to degrade 50% of Her 2 expression
Procedure: MCF-7 cells are seeded in 24 well plates at a density of approximately 30,000 cells/well and allowed to grow for 16 hours in DMEM supplemented with 10% FBS. Drug is then added at a concentration range of 100 uM to 0.01 uM. Cells are incubated for an additional […]. Drug treated cells and untreated control cells are trypsinized, and incubated at room temperature for 15 minutes with anti Her-2 neu Ab conjugated with phycoerythrin (Becton Dickinson, San Jose Calif.; Cat no. 340552) at a concentration of 0.25 ug/ml, or non-specific control IgG1 conjugated with phycoerythrin (Becton Dickinson, San Jose Calif.; Cat no. 340761). Samples were analyzed using a FACS Calibur flow cytometer (Becton Dickinson) equipped with Argon-ion laser that which emits 15 mW of 488 nm light for excitation of the phycoerythrin fluorochrome. 10,000 events were collected per sample. A fluorescence histogram was generated and the mean fluorescence intensity (mfi) of each sample was determined using Cellquest software. The background was defined as the mfi generated from cells incubated with control IgG, and was subtracted from each sample stained with the HER-2/neu Ab Percent degradation of Her-2 was calculated as follows: % Her-2 degradation=(mfi HER-2 sample)/(mfi HER-2 untreated cells)×100
The compounds in the table below were prepared as described above and evaluated for Her-2 degradation ability based on the above assay (example 314).

[6] = test system: Purified native Hsp90 protein (mixture of alpha and beta) from HeLa cells; assay: Fluorescence-based competitive binding assay for biotinylated-geldanamycin to purified Hsp90; parameters: species or system human; conditions: HSP90 binding ability; competition with biotin-GM
[7] = test system: N87 xenograft model of human stomach cancer; conditions: oral 2×100 mg/kg/day, 5 days/week
[8] = Solubility in simulated gastric fluid, simulated intestinal fluid and serum; format: physicochemical; conditions: for Serum (PH 7.4): solubility in serum; for Gastric (PH 2.0): solubility in simulated gastric fluid; for Intestinal (PH 6.5): solubility in simulated intestinal fluid
[9] = Mouse pharmacokinetics after oral administration at 100 mg/kg
[10] = Homo sapiens, MCF7, 120 h, 5 days, SEM 9-21% of the mean
[11] = Homo sapiens, MCF7, MCF-7 cells, 16 h, SEM 6-11% of the mean, read-out: HER-2 IC50
[12] = Homo sapiens, MCF7, MCF-7 cells, 16 h, average of at least three observations, read-out: HER-2 IC50

SMILES: CCC(C)NCCCn1c(Sc2cc(OC)ccc2I)nc2c(N)ncnc21 (racemic) [Compound 109, 9-(3-sec-Butylamino-propyl)-8-(2-iodo-5-methoxy-phenylsulfanyl)-9H-purin-6-ylamine (racemate)]
- IC50 [1, 10]: 0.2 µM
- IV Parameters T1/2 [2]: 78 min
- IV Parameters VSS [2]: 3.4 L/kg
- PO Parameters T1/2 [2]: 42 min
- PO Parameters Cmax [2]: 4800 ng/mL
- clearance ([3]; iv, 10 mg/kg): 33 mL/min/kg
- AUC ([3]; po, 100 mg/kg): 6330 ng·h/mL
- Tmax ([3]; po, 100 mg/kg): 30 min
- bioavailability ([3]; po, 100 mg/kg): 28%
- IC50 [4, 11]: 0.21 µM

SMILES: CCCCn1c(Cc2cc(OC)ccc2OC)nc2c(N)ncnc21 [Compound 1, 8-(2,5-dimethoxybenzyl)-N-9-butyladenine]
- IC50 [5]: 6 µM
- IC50 [6]: 10 µM
- IC50 [4, 12]: 12 µM

SMILES: C#CCCCn1c(Cc2cc(OC)ccc2OC)nc2c(N)nc(F)nc21 [Compound 2, 8-(2,5-dimethoxybenzyl)-N9-pentynyl-2-fluoro adenine]
- IC50 [5]: 0.6 µM

SMILES: COc1ccc(OC)c(Cc2nc3c(N)nc(F)nc3n2CCC=C(C)C)c1 [Compound 3, 8-(2,5-Dimethoxy-benzyl)-2-fluoro-9-(4-methyl-pent-3-enyl)-9H-purin-6-ylamine]
- IC50 [5]: 0.5 µM
- IC50 [6]: 1.1 µM

SMILES: COc1ccc(OC)c(Cc2nc3c(N)nc(F)nc3n2CCCCCBr)c1 [Compound 5, 8-(2,5-Dimethoxy-benzyl)-2-fluoro-9-(5-bromo-pentyl)-9H-purin-6-ylamine]
- IC50 [5]: 1 µM
- IC50 [6]: 2 µM

SMILES: C#CCCCn1c(Cc2cc(OC)ccc2OC)nc2c(N)ncnc21 [Compound 8, 8-(2,5-Dimethoxy-benzyl)-9-pent-4-ynyl-9H-purin-6-ylamine]
- IC50 [5]: 1.5 µM
- IC50 [6]: 6 µM

SMILES: COc1ccc(OC)c(Cc2nc3c(N)ncnc3n2CCC=C(C)C)c1 [Compound 10, 8-(2,5-Dimethoxy-benzyl)-9-(4-methyl-pent-3-enyl)-9H-purin-6-ylamine]
- IC50 [5]: 1.5 µM
- IC50 [6]: 2.8 µM

SMILES: C=CCNC1=C2C[C@@H](C)C[C@H](OC)[C@H](O)[C@@H](C)/C=C(\C)[C@H](OC(N)=O)[C@@H](OC)/C=C\C=C(/C)C(=O)NC(=CC1=O)C2=O [Compound 17-AAG, 17-allylamino,17-desmethoxy-geldanamycin, reference compound]
- IC50 ([1]; 5 days): 0.032 ± 0.004 µM
- IC50 ([4]; read-out: HER-2 IC50): 0.0129 ± 0.0003 µM

SMILES: C#CCCCn1c(Cc2cc(OC)ccc2I)nc2c(N)ncnc21 [Compound 26, 8-(2-Iodo-5-methoxy-benzyl)-9-pent-4-ynyl-9H-purin-6-ylamine]
- IC50 [5]: 1.5 µM
- IC50 [6]: 1.1 µM

SMILES: COc1ccc(I)c(Cc2nc3c(N)ncnc3n2CCC=C(C)C)c1 [Compound 27, 8-(2-Iodo-5-methoxy-benzyl)-9-(4-methyl-pent-3-enyl)-9H-purin-6-yl amine]
- IC50 [5]: 0.8 µM
- IC50 [6]: 0.9 µM

SMILES: COc1ccc(I)c(Cc2nc3c(N)nc(F)nc3n2CCC=C(C)C)c1 [Compound 28, 2-Fluoro-8-(2-iodo-5-methoxy-benzyl)-9-(4-methyl-pent-3-enyl)-9H-purin-6-ylamine]
- IC50 [5]: 1 µM
- IC50 [6]: 2.3 µM

SMILES: C#CCCCn1c(Cc2cc(OC)ccc2I)nc2c(N)nc(F)nc21 [Compound 29, 2-Fluoro-8-(2-iodo-5-methoxy-benzyl)-9-pent-4-ynyl-9H-purin-6-ylamine]
- IC50 [5]: 0.8 µM
- IC50 [6]: 0.9 µM

SMILES: CCCCn1c(Sc2cc(OC)ccc2I)nc2c(N)ncnc21 [Compound 44, 9-Butyl-8-(2-iodo-5-methoxy-phenylsulfanyl)-9H-purin-6-ylamine]
- IC50 [5]: 1.5 µM
- IC50 [6]: 1.5 µM

SMILES: CCCCn1c(Sc2ccc(I)c(OC)c2)nc2c(N)ncnc21 [Compound 45, 9-Butyl-8-(4-iodo-3-methoxy-phenylsulfanyl)-9H-purin-6-ylamine]
- IC50 [5]: 2 µM
- IC50 [6]: 1.8 µM

SMILES: COc1ccc(I)c(Sc2nc3c(N)ncnc3n2CCC=C(C)C)c1 [Compound 46, 8-(2-Iodo-5-methoxy-phenylsulfanyl)-9-(4-methyl-pent-3-enyl)-9H-purin-6-ylamine]
- IC50 [5]: 0.3 µM
- IC50 [6]: 0.9 µM
- IC50 [4, 12]: 0.37 µM

SMILES: C#CCCCn1c(Sc2cc(OC)ccc2I)nc2c(N)ncnc21 [Compound 47, 8-(2-Iodo-5-methoxy-phenylsulfanyl)-9-pent-4-ynyl-9H-purin-6-ylamine]
- IC50 [5]: 0.3 µM
- IC50 [6]: 0.8 µM

SMILES: C#CCCCn1c(Sc2cc(OC)ccc2OC)nc2c(N)ncnc21 [Compound 57, 8-(2,5-dimethoxy-phenylsulfanyl)-9-pent-4-ynyl-9H-purin-6-ylamine]
- IC50 [5]: 1.4 µM
- IC50 [6]: 4 µM

SMILES: COc1ccc(OC)c(Sc2nc3c(N)ncnc3n2CCC=C(C)C)c1 [Compound 63, 8-(2,5-dimethoxy-phenylsulfanyl)-9-(4-methyl-pent-3-enyl)-9H-purin-6-ylamine]
- IC50 [5]: 0.7 µM
- IC50 [6]: 1.3 µM

SMILES: COc1ccc(I)c(Sc2nc3c(N)ncnc3n2CCCNC(C)(C)C)c1 [Compound 95, 9-(3-tert-Butylamino-propyl)-8-(2-iodo-5-methoxy-phenylsulfanyl)-9H-purin-6-ylamine]
- IC50 [1, 10]: 0.2 µM
- IV Parameters T1/2 [2]: 96 min
- IV Parameters VSS [2]: 24 L/kg
- IV Parameters Cl [2]: 131 mL/min/kg
- PO Parameters T1/2 [2]: 54 min
- PO Parameters Tmax [2]: 30 min
- PO Parameters Cmax [2]: 6700 ng/mL
- PO Parameters AUC [2]: 680 µg·min/mL
- PO Parameters % F [2]: 97%
- bioavailability ([3]; oral, 100 mg/kg): ≥ 50%
- IC50 [4, 11]: 0.14 µM

SMILES: CCC(CC)NCCCn1c(Sc2cc(OC)ccc2I)nc2c(N)ncnc21 [Compound 108, 9-[3-(1-Ethyl-propylamino)-propyl]-8-(2-iodo-5-methoxy-phenylsulfanyl)-9H-purin-6-ylamine]
- IC50 [1, 10]: 0.2 µM
- IC50 ([1]; Homo sapiens, MCF7): 0.2 µM
- IV Parameters T1/2 [2]: 30 min
- IV Parameters VSS [2]: 2.4 L/kg
- IV Parameters Cl [2]: 69 mL/min/kg
- PO Parameters T1/2 [2]: 36 min
- PO Parameters Tmax [2]: 30 min
- PO Parameters Cmax [2]: 5800 ng/mL
- PO Parameters AUC [2]: 590 µg·min/mL
- PO Parameters % F [2]: 42%
- Cmax ([3]; po, 100 mg/kg): 12 µM
- IC50 [4, 11]: 0.21 µM
- IC50 ([4]; Homo sapiens, MCF7, MCF-7 cells, read-out: HER-2 IC50): 0.21 µM

SMILES: COc1ccc(I)c(Sc2nc3c(N)ncnc3n2CCNCC(C)(C)C)c1.O=P(O)(O)O [Compound 132.H3PO4, 9-[2-(2,2-Dimethyl-propylamino)-ethyl]-8-(2-iodo-5-methoxy-phenylsulfanyl)-9H-purin-6-ylamine, H3PO4 salt]
- tumor growth inhibition ([7]; N87): statistically significant (p=0.02) tumor growth inhibition
- toxicity ([7]; mice): no overt toxicity

SMILES: CCOP(=O)(CCn1c(Sc2nc3cncc(Cl)c3s2)nc2c(N)ncnc21)OCC [Compound 206, {2-[6-Amino-8-(7-chloro-thiazolo[4,5-c]pyridinl-2-ylsulfanyl)-purin-9-yl]-ethyl}-phosphonic acid diethyl ester]
- solubility compared with benzothioazol analog 204 ([8]; simulated gastric fluid, simulated intestinal fluid, serum): significantly more soluble in all three solutions
- Serum (PH 7.4) [8]: 14 µg/mL
- Gastric (PH 2.0) [8]: 124 µg/mL
- Intestinal (PH 6.5) [8]: 38.3 µg/mL
- plasma concentrations (in words) ([9]; PO 100 mg/kg): below the level of detection
- Cmax ([9]; in vivo, po, 100 mg/kg): < 500 ng/mL

SMILES: N#CCCCCn1c(Sc2nc3cccc(Cl)c3s2)nc2c(N)ncnc21 [Compound 284, 5-[6-Amino-8-(7-chloro-benzothiazol-2-ylsulfanyl)-purin-9-yl]-pentanenitrile]
- Serum (PH 7.4) [8]: 31.3 µg/mL
- Gastric (PH 2.0) [8]: 58.7 µg/mL
- Intestinal (PH 6.5) [8]: 4.4 µg/mL
- IC50 ([4]; Homo sapiens, MCF7, read-out: HER-2): 0.11 µM

SMILES: C#CCCCn1c(Sc2cc(OC)ccc2I)nc2c(N)ncnc21 [Compound 309, 8-(2-iodo-5-methoxy-phenylsulfanyl)-9-pent-4-ynyl-9H-purin-6-ylamine]
- IC50 [1, 10]: 0.7 µM
